The text below walks through data of patent publication US20250262298A1, “STING MODULATOR COMPOUNDS WITH SULFAMATE LINKAGES, AND METHODS OF MAKING AND USING” (TAKEDA PHARMACEUTICAL COMPANY LIMITED, priority 2018, published 2025).

SMILES strings stand for the structures. Where only a bound is given, the exact number is not on record here.

The subject of assay [1] is THP1-Dual cells (Lucia luciferase under ISG54 promoter). The assay can be described thus: THP-1 Dual Lucia reporter gene assay. In kind it is cell-based, human. The note with it: Homo sapiens, THP1-Dual, 20 h, luminescence signal induction, 20 hours at 37° C. On the procedure: THP1-Dual™ cells (InvivoGen #thpd-nfis) were derived from the human THP-1 monocyte cell line by stable integration of the Lucia luciferase gene, a secreted luciferase reporter gene, under the control of an ISG54 (interferon-stimulated gene) minimal promoter in conjunction with five interferon (IFN)-stimulated response elements. On the day of experiment, the cells were plated to a black, 384-well plate (Corning 356697) at 7500 cells/25 μl per well density in growth media (RPMI 1640, 2 mM L-glutamine, 25 mM HEPES, 10% heat-inactivated fetal bovine serum, 100 μg/mL Normocin™, 50 U/mL-50 μg/mL Pen-Strep, 10 μg/mL of blasticidin, and 100 μg/mL of Zeocin). The cell plates were dosed with 62.5 nL of the testing compounds, and then incubated at 37° C. for 20 hours. At the end of the incubation, 15 μL/well of the QUANTI-Luc™ (InvivoGen #rep-qlc1) were added, and luminescence was measured immediately using the LeadSeeker.
For the assay method described above, test compound percent luminescence signal induction, at various concentrations, was calculated relative to untreated and DMSO only treated samples. Compound concentration versus percent signal induction curves were fitted to generate EC50 values. One skilled in the art will appreciate that the values generated as EC50 values are subject to experimental variation.

The target in another assay is Human STING (Homo sapiens (Human), UniProt Q86WV6, H232R). The assay can be described thus: Human STING TR-FRET assay. In kind it is binding. The following applies: human STING residues 140-379 (H232R), 100 nM; fluorescein labeled ligand 100 nM; 60 minutes at rt. On the procedure: Human STING (accession number GB:BC047779) DNA encoding residues 140-379 (H232R) was cloned into pET28 as N-terminal HIS and C-terminal Avi tagged fusion protein, and a rTEV cleavage site between HIS tag and STING. The sequence was verified before recombinant protein expression using E. coli expression system.
Human STING, sequence (Q86WV6 140-379 H232R): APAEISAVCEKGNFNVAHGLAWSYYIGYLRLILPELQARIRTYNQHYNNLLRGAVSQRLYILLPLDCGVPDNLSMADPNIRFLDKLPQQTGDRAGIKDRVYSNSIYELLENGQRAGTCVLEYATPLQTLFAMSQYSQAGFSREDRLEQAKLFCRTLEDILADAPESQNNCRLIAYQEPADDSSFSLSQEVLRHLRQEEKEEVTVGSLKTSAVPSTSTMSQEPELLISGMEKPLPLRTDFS
For expression, STING expression vector was transformed into BL21(DE3) cells. The expression was induced by adding IPTG and expressing in 16° C. for 20 hours.
For purification, STING was purified by Nickel affinity resin (Thermo Scientific #25215), followed by TEV enzyme cleavage and Superdex 200 column (GE Healthcare #28-9893-35) purification. For site directed in vitro biotinylation, purified Avi-tagged STING protein was incubated with Biotin (SUPELCO #47868), ATP (SIGMA #A-7699) and BirA enzyme, followed by further purification through a Superdex 200 column (GE Healthcare #28-9893-35). Biotinylation was confirmed by Mass Spectrometry analysis.
40 nL of test compounds in DMSO were added to wells in a white, 384 well microtitre plate (Greiner 784075). 2 uL STING assay buffer (PBS and 0.01% BSA) containing fluorescein labeled ligand (c[G(2′,5′)p-2′-Fluo-AHC-A(3′,5′)p]-Biolog C 195, 100 nM final) and Tb labeled Streptavidin (Streptavidin-Tb cryptate-CisBio 610SATLB) were added. Then 2 uL STING assay buffer containing STING protein (100 nM final) was added and the mixture was incubated at rt for 60 minutes. The plates were then read on a BMG PheraStar Plus reader (LanthaScreen module).
For the assay method described above, test compound percent inhibition, at various concentrations, was calculated relative to untreated and DMSO only treated samples. Compound concentration versus percent inhibition curves were fitted to generate IC50 values. One skilled in the art will appreciate that the values generated either as percentage inhibition at a single concentration or IC50 values are subject to experimental variation.
On the technique in general: TR-FRET usually uses a lanthanide donor and a delayed reading to cut background.

A word on the EC50: it is the midpoint of the concentration-response curve. Usually IC50 stands for the concentration needed to halve the response being measured. For the compound `Nc1nc2c(ncn2[C@@H]2O[C@@H]3COP(=O)(S)O[C@H]4C[C@H](n5nnc6cncnc65)C[C@@H]4CNS(=O)(=O)O[C@@H]2C3)c(=O)[nH]1` (single isomer, unassigned) [Compound I-7], the EC50 in assay [1] was more than 25 µM. For the same compound, the 50% inhibitory concentration (IC50) on Human STING is 10 to 100 µM.
Compound `Nc1nc2c(ncn2[C@@H]2O[C@@H]3COP(=O)(S)O[C@H]4C[C@H](n5cnc6c(N)ncnc65)O[C@@H]4CNS(=O)(=O)O[C@@H]2C3)c(=O)[nH]1` (single isomer, unassigned) [Compound I-3] yielded a 50% effective concentration (EC50) in assay [1] of less than 1 µM. At Human STING, this compound had a half-inhibitory concentration (IC50) of less than 1 µM.
In the case of `Cn1cc([C@@H]2O[C@@H]3CNS(=O)(=O)O[C@@H]4C[C@@H](COP(=O)(S)O[C@H]3[C@H]2F)O[C@H]4n2cnc3c(=O)[nH]c(N)nc32)c2ncnc(N)c21` (single isomer, unassigned) [Compound I-19], the EC50 in assay [1] was more than 25 µM. The same compound showed a half-inhibitory concentration (IC50) at Human STING of 1 to 10 µM.
